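Method: 48-hour compound exposure of cells in 96-well plates, five concentrations, linear interpolation of endpoints. Here, GI50 denotes the concentration required for 50% inhibition of growth.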 Active and inactive are the calls of the source. No stated cut-off is given here; in the data, active = GI50 up to about 1.1 µM and inactive = higher.
What was measured:
Experiment in all cases: NCI-60 cell line screen, 48 h
[1] = system: SK-MEL-2
[2] = system: DU-145
[3] = system: HOP-92
[4] = system: CCRF-CEM
[5] = system: MOLT-4
[6] = system: KM12
[7] = system: ACHN
[8] = system: K562
[9] = system: MCF7
[10] = system: EKVX
[11] = system: RXF 393
[12] = system: HCT-15
[13] = system: NCI-H226
[14] = system: HOP-62
[15] = system: MDA-MB-231
[16] = system: SNB-75
[17] = system: U-251
[18] = system: NCI-H522
[19] = system: SNB-19
[20] = system: NCI-H23

## CC(=O)O[C@H]1C(=O)[C@@]2(C)[C@H]([C@H](OC(=O)c3ccccc3)[C@]3(O)C[C@H](OC(=O)[C@H](O)[C@@H](NC(=O)c4ccc(N)cc4)c4ccccc4)C(C)=C1C3(C)C)[C@]1(OC(C)=O)CO[C@@H]1C[C@@H]2O
[1]
  GI50: < 0.005 µM (active)
[2]
  GI50: 0.0191 µM (active)
[3]
  GI50: 35.1 µM (inactive)
[4]
  GI50: < 0.005 µM (active)
[5]
  GI50: 0.0129 µM (active)
[6]
  GI50: < 0.005 µM (active)
[7]
  GI50: 0.711 µM (active)
[8]
  GI50: < 0.005 µM (active)
[9]
  GI50: < 0.005 µM (active)
[10]
  GI50: 0.959 µM (active)
[11]
  GI50: 0.0887 µM (active)
[12]
  GI50: 2.68 µM
[13]
  GI50: < 0.005 µM (active)
[14]
  GI50: 0.0253 µM (active)
[15]
  GI50: 0.22 µM (active)
[16]
  GI50: < 0.005 µM (active)
[17]
  GI50: < 0.005 µM (active)
[18]
  GI50: < 0.005 µM (active)
[19]
  GI50: 0.00675 µM (active)

## O=C(/C=C/c1cccc(Oc2ccccc2)c1)NCc1ccc(C(=O)NCc2ccccc2)cc1
[1]
  GI50: 26 µM (inactive)
[2]
  GI50: > 100 µM (inactive)
[3]
  GI50: 37.8 µM (inactive)
[4]
  GI50: > 100 µM (inactive)
[5]
  GI50: > 100 µM (inactive)
[6]
  GI50: > 100 µM (inactive)
[7]
  GI50: 71 µM (inactive)
[8]
  GI50: > 100 µM (inactive)
[20]
  GI50: 31 µM (inactive)
[9]
  GI50: > 100 µM (inactive)
[10]
  GI50: > 100 µM (inactive)
[11]
  GI50: 12.2 µM (inactive)
[12]
  GI50: > 100 µM
[13]
  GI50: 27.5 µM (inactive)
[14]
  GI50: 2.96 µM (inactive)
[15]
  GI50: 52.2 µM (inactive)
[16]
  GI50: 12.1 µM (inactive)
[17]
  GI50: 38.1 µM (inactive)
[18]
  GI50: 98.9 µM (inactive)
[19]
  GI50: 32.4 µM (inactive)

## CC(=O)Oc1c2c(c(CC=C(C)C)c3c1C(=O)C1=C[C@@H]4CC5C(C)(C)OC(C/C=C(/C)C(=O)O)(C4=O)[C@@]15O3)OC(C)(CCC=C(C)C)C=C2 (stereo partly specified)
[1]
  GI50: 0.305 µM (active)
[2]
  GI50: 0.287 µM (active)
[3]
  GI50: 0.237 µM (active)
[4]
  GI50: 0.101 µM (active)
[5]
  GI50: 0.0769 µM (active)
[6]
  GI50: 0.188 µM (active)
[7]
  GI50: 0.102 µM (active)
[8]
  GI50: 0.409 µM (active)
[20]
  GI50: 0.197 µM (active)
[9]
  GI50: 0.173 µM (active)
[10]
  GI50: 0.249 µM (active)
[11]
  GI50: 0.144 µM (active)
[12]
  GI50: 0.244 µM
[13]
  GI50: 0.313 µM (active)
[14]
  GI50: 0.832 µM (active)
[15]
  GI50: 0.227 µM (active)
[16]
  GI50: 0.323 µM (active)
[17]
  GI50: 0.0918 µM (active)
[18]
  GI50: 0.0796 µM (active)
[19]
  GI50: 0.269 µM (active)

## CSc1ncnc2c1CCN2
[1]
  GI50: 5.86 µM (inactive)
[2]
  GI50: > 10 µM (inactive)
[3]
  GI50: 3.96 µM (inactive)
[4]
  GI50: > 10 µM (inactive)
[5]
  GI50: > 10 µM (inactive)
[6]
  GI50: 5.35 µM (inactive)
[7]
  GI50: > 10 µM (inactive)
[8]
  GI50: 4.93 µM (inactive)
[20]
  GI50: 4.51 µM (inactive)
[9]
  GI50: 6.34 µM (inactive)
[10]
  GI50: > 10 µM (inactive)
[11]
  GI50: > 10 µM (inactive)
[12]
  GI50: > 100 µM
[13]
  GI50: > 10 µM (inactive)
[14]
  GI50: > 100 µM (inactive)
[15]
  GI50: > 10 µM (inactive)
[16]
  GI50: > 10 µM (inactive)
[18]
  GI50: 2.73 µM (inactive)
[19]
  GI50: > 10 µM (inactive)

## CCOc1cc(NC(C)=O)ccc1C(=O)N/N=C/c1ccco1
[1]
  GI50: > 100 µM (inactive)
[2]
  GI50: > 100 µM (inactive)
[3]
  GI50: 11.8 µM (inactive)
[4]
  GI50: 39.3 µM (inactive)
[5]
  GI50: 20.9 µM (inactive)
[6]
  GI50: > 100 µM (inactive)
[7]
  GI50: 35.6 µM (inactive)
[8]
  GI50: 4.05 µM (inactive)
[20]
  GI50: > 100 µM (inactive)
[9]
  GI50: 22.3 µM (inactive)
[10]
  GI50: > 100 µM (inactive)
[11]
  GI50: > 100 µM (inactive)
[12]
  GI50: > 100 µM
[13]
  GI50: > 100 µM (inactive)
[14]
  GI50: > 100 µM (inactive)
[15]
  GI50: > 100 µM (inactive)
[16]
  GI50: > 100 µM (inactive)
[18]
  GI50: > 100 µM (inactive)

From ChEMBL document CHEMBL1201862, “PubChem BioAssay data set” (2004)
